Tests used:
hMATE2K = molecular target: T1, hMATE2K (Homo sapiens, UniProt Q86VL8); test: Substrate assessment: iohexol uptake in 293 cells expressing hMATE2K vs control; assay type: in vitro ADME; details: 10 μM iohexol, median (95% CI)
T1 construct: expressed in transfected cells; host or cells: HEK-293 (293) cells, pEBTetD plasmid, doxycycline-induced
From the text: (§1) We characterized the inhibitory potential of iohexol on major drug transporters recommended by regulatory agencies, which were previously assessed in a clinical transporter phenotyping cocktail study. These transporters include hOAT1, hOAT3, hOCT1, hOCT2, hMATE1, hMATE2K, human organic anion transporter polypeptides (hOATP)1B1, hOATP1B3, and human multidrug resistance protein (hMDR)1. Additionally, we investigated whether iohexol is a substrate for any of the renal transporters among these, including hOAT1/3, hOCT1/2, and hMATE1/2K. Cell‐based uptake assays were used to assess the activities of hOAT1/3, hOCT1/2, hMATE1/2K, and hOATP1B1/1B3. Inside‐out membrane vesicle uptake assays were used to evaluate the activity of hMDR1.
For substrate assessments, iohexol was incubated with stably transfected HEK‐293 cells expressing one of the following transporters: hOAT1, hOAT3, hOCT1, hOCT2, hMATE1, or hMATE2K, as well as with control cells lacking transporter expression. Stably transfected cell lines containing pEBTetD plasmids with wild‐type human transporter cDNAs were generated as previously described. Transporter expression was induced by adding 1 μg/mL doxycycline to the growth medium for at least 20 h. Iohexol would be considered a substrate for these transporters if: (1) the ratio of iohexol uptake in cells expressing the transporter to that in control cells was ≥ 2, and (2) a known inhibitor of the transporter reduced iohexol uptake to ≤ 50% at concentrations ≥ 10 times its inhibition constant or half‐maximal inhibitory concentration.
Uptake assays were performed using stably transfected 293 cells, with or without the expression of one of the following transporters: hOAT1, hOAT3, hOCT1, hOCT2, hMATE1, or hMATE2K, as previously described.^1
For the substrate assessment, cells were incubated with 10 µM iohexol for 10 minutes and 30 minutes for each transporter. Inhibition assays were performed using specific standard substrates for each transporter: 10 µM para-aminohippuric acid (PAH) for hOAT1, 3 µM estrone-3-sulfate (E3S) for hOAT3, 50 µM metformin for hOCT1, 5 µM metformin for hOCT2, and 3 µM 1-methyl-4-phenylpyridinium (MPP+) for hMATE1 and hMATE2K. […]
R version 4.2.1 (R Foundation for Statistical Computing, Vienna, Austria) was used for statistical evaluations and data visualization. The data analysis approach for the in vitro study was detailed by Hsin CH et al..^1 In brief, for transport assays, the initial uptake rate was calculated by normalizing the substrate concentration to both the protein concentration and the incubation time for each dish or well. The transporter-mediated uptake rate (net uptake) was determined by performing an element-wise subtraction of uptake rates from different conditions. […]

OCT2 = test system: OCT2; design: method as in ref 15 Yang et al.; details: rat kidneys; ref 15 Yang et al.; cited from earlier work
[1] = design: method as in PMID 27679715; details: cited from earlier work
hMDR1 = molecular target: T2, hMDR1 (Homo sapiens, UniProt P08183); test: Inhibition of hMDR1-mediated 3H-NMQ uptake, inside-out membrane vesicles; assay type: biochemical; details: substrate 0.01 µM 3H-NMQ, median (95% CI)
T2 construct: purchased Pharm Tox, Netherlands; host or cells: HEK293 cells (membrane vesicles)
T2 sequence (P08183 whole entry): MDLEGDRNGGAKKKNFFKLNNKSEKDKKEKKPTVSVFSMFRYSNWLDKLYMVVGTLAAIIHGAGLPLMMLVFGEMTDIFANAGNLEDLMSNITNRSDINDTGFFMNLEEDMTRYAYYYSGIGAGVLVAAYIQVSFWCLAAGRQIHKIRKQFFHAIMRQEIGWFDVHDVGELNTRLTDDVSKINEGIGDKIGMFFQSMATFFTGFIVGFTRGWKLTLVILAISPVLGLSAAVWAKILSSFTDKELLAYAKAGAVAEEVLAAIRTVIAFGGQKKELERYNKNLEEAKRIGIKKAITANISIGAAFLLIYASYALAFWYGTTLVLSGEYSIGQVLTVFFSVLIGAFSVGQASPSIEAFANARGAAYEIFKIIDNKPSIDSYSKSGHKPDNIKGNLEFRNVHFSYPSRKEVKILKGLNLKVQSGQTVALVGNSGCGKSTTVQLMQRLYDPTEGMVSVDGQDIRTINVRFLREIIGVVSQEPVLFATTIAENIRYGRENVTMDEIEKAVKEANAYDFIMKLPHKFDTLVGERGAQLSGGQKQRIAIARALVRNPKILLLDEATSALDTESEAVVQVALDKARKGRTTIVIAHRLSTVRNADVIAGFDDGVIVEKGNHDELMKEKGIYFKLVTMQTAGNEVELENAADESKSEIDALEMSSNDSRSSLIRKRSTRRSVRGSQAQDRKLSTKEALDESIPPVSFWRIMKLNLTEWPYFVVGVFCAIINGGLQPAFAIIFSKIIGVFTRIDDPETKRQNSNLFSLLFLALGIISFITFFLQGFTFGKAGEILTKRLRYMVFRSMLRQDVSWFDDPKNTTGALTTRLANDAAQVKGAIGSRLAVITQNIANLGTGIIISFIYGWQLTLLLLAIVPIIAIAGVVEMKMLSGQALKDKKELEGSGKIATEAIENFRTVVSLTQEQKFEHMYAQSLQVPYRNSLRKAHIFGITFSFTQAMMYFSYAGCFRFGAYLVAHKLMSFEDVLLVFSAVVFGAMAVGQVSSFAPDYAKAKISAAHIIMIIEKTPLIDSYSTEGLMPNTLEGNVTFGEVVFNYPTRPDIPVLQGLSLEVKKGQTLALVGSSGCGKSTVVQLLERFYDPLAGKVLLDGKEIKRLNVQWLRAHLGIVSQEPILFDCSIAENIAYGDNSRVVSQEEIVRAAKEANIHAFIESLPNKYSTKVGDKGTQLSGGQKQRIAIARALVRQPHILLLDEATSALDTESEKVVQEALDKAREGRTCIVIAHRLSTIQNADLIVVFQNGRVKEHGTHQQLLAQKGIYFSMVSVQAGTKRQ
From the text: as §1
To determine the maximal inhibitory potential of iohexol, intracellular accumulation of a standard substrate was measured with and without the clinically relevant highest concentrations of iohexol. Control inhibitors were tested in each experiment.
In all subsequent in vitro studies, control experiments were conducted to validate the results. […] Each condition, including cells or vesicles with the transporter and their respective controls, was analyzed in at least three replicates. […]
R version 4.2.1 (R Foundation for Statistical Computing, Vienna, Austria) was used for statistical evaluations and data visualization. The data analysis approach for the in vitro study was detailed by Hsin CH et al..^1 In brief, for transport assays, the initial uptake rate was calculated by normalizing the substrate concentration to both the protein concentration and the incubation time for each dish or well. The transporter-mediated uptake rate (net uptake) was determined by performing an element-wise subtraction of uptake rates from different conditions. […] Net uptake rates were determined by subtracting the uptake rate of the control cells or vesicles from that of the transporter-expressing cells or vesicles for each pair. […]

T1 sequence (Q86VL8 1-566 isoform Q86VL8-3): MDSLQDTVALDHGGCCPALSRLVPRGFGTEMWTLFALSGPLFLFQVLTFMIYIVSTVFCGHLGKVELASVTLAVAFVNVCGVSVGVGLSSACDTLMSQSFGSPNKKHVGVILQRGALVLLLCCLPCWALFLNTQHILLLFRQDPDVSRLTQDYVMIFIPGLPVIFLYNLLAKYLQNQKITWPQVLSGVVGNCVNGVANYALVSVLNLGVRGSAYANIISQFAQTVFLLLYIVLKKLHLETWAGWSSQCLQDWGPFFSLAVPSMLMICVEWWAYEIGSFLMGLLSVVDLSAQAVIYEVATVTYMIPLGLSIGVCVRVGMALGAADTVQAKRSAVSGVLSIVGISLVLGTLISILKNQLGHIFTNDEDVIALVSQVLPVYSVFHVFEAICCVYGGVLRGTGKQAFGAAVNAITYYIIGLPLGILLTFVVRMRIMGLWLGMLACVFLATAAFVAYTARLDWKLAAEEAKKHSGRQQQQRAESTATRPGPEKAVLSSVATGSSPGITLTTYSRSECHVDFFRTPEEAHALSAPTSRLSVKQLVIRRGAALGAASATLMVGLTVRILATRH

Structure (SMILES): CC(=O)N(CC(O)CO)c1c(I)c(C(=O)NCC(O)CO)c(I)c(C(=O)NCC(O)CO)c1I (stereo not drawn) [iohexol]
- Differences in intracellular accumulation (expression on minus off) (hMATE2K; 10 minutes): -0.36 (-1.1 to 0.24) pmol/mg protein
- Uptake ratio (transporter-expressing vs non-expressing cells) (hMATE2K; 10 minutes): 0.95 (0.81 to 1.1)
- Differences in intracellular accumulation (expression on minus off) (hMATE2K; 30 minutes): 0.62 (-0.38 to 1.5) pmol/mg protein
- Uptake ratio (transporter-expressing vs non-expressing cells) (hMATE2K; 30 minutes): 1.1 (0.93 to 1.4)
- Expression of OCT2 (OCT2): downregulated
- Plasma protein binding [1]: 1.5%
- Inhibitory effect (% reduction of specific activity) (hMDR1; 20 mM iohexol): < 30%
- inhibition at 1 min, 2 mM (hMDR1; human, probe 3H-NMQ (N-methyl-quinidine), 0.01 µM, 2 mM iohexol, read-out: Inhibitory effect (% reduction of specific activity)): -4.9%
- inhibition at 1 min, 20 mM (hMDR1; human, probe 3H-NMQ (N-methyl-quinidine), 0.01 µM, 20 mM iohexol, read-out: Inhibitory effect (% reduction of specific activity)): 21%

Reference: publication PMC11788587, “Validating Low‐Dose Iohexol as a Marker for Glomerular Filtration Rate by In Vitro and In Vivo Studies” (Clinical and Translational Science, 2025)
